Laboratory results taken from patent US8980850B2, “Administration of a NEDD8-activating enzyme inhibitor and hypomethylating agent” (Millennium Pharmaceuticals, Inc., priority 2011, dated 2015).

Assays:
[1] = system: THP-1
From the text: Normalization. […] After normalization, the controls were discarded.

[2] = system: OCI-M2 subcutaneous xenograft tumors; test: OCI-M2 subcutaneous xenograft model, tumor growth and synergy; conditions: s.c. Days 1, 4, 8, 11, 15 and 18; FIG. 4
[3] = system: HL-60 disseminated xenograft; test: HL-60 disseminated xenograft model, survival; assay type: in vivo, female mice CB-17 SCID; conditions: MLN4924 180 mg/kg and/or azacitidine 10 mg/kg s.c. on days 22, 25, 29, 32, 36, 39; for Mean survival time: Vehicle 48.1
Method: Test subjects. […] On day 20 post-inoculation, mice were randomized into groups of 10. Starting on day 22, mice were dosed subcutaneously with vehicle, 180 mg/kg MLN4924, 10 mg/kg azacitidine, or the combination of 180 mg/kg MLN4924 and 10 mg/kg azacitidine, using the same twice-weekly schedule as described in the subcutaneous xenograft experiments (dosing on days 22, 25, 29, 32, 36, 39). The mice were monitored at least twice weekly for body weight loss and signs of disease, including paresis or paralysis of hind limbs and emergence of palpable and internal solid tumors. The day on which an animal died or was sacrificed due to disease burden was recorded.
To determine synergy in the survival times, the mean survival times and corresponding standard errors were computed for each treatment group.

[4] = system: THP-1 subcutaneous xenograft tumors; test: THP-1 subcutaneous xenograft model, tumor growth and synergy; conditions: s.c. Days 1, 4, 8, 11, 15 and 18; FIG. 3
[5] = system: HL60 subcutaneous xenograft tumors; test: HL-60 subcutaneous xenograft model, tumor growth and synergy; conditions: s.c. Days 1, 4, 8, 11, 15 and 18; FIG. 2

Compound | single agent activity [1] | effect on tumor growth [2] | extension of mean survival time compared to the control group [3] | Mean survival time [3] | effect on tumor growth [4] | effect on tumor growth [5]
Nc1ncn([C@H]2C[C@H](O)[C@@H](CO)O2)c(=O)n1 [decitabine, 4-amino-1-(2-deoxy-β-D-erythropentofuranosyl)-1,3,5-triazin-2(1H)-one] | lack of single agent activity |  |  |  |  | 
NS(=O)(=O)OC[C@@H]1C[C@@H](n2ccc3c(N[C@H]4CCc5ccccc54)ncnc32)C[C@@H]1O [MLN4924, ((1S,2S,4R)-4-(4-((1S)-2,3-dihydro-1H-inden-1-ylamino)-7H-pyrrolo[2,3-d]-pyrimidin-7-yl)-2-hydroxycyclopentyl)methyl sulfamate] |  | inhibited tumor growth | 8.4 days | 56.5 days | inhibited tumor growth | marginal effect on tumor growth
Nc1ncn([C@@H]2O[C@H](CO)[C@@H](O)[C@H]2O)c(=O)n1 [azacitidine, 4-amino-1-β-D-ribofuranosyl-s-triazin-2(1H)-one] |  | inhibited tumor growth | 21.1 days | 69.2 days | marginal effect on tumor growth | marginal effect on tumor growth
